Results as given in PubChem BioAssay (NCI).
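The concentration for 50% growth inhibition is given as GI50. TGI denotes the concentration required for complete inhibition of growth.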

Key:
Assay in all cases: NCI-60 cell line screen, 384-well format
CAKI-1 renal = system: CAKI-1 renal
COLO 205 colon = system: COLO 205 colon
HOP-92 NSCLC = system: HOP-92 NSCLC
M14 melanoma = system: M14 melanoma
MCF7 breast = system: MCF7 breast
NCI-H322M lung = system: NCI-H322M lung
NCI/ADR-RES ovarian = system: NCI/ADR-RES ovarian
OVCAR-3 ovarian = system: OVCAR-3 ovarian
OVCAR-4 ovarian = system: OVCAR-4 ovarian
RPMI-8226 leukemia = system: RPMI-8226 leukemia
SF-268 CNS = system: SF-268 CNS
SNB-75 CNS = system: SNB-75 CNS
UO-31 renal = system: UO-31 renal

For C=CC(=O)Nc1cccc(Oc2nc(Nc3ccc(N4CCN(C)CC4)cc3)nc3ccsc23)c1, the GI50 (CAKI-1 renal) was 833 nM, the TGI (CAKI-1 renal) was 2150 nM and the GI50 (COLO 205 colon) was 1830 nM. The TGI (COLO 205 colon) was 3250 nM, the GI50 (HOP-92 NSCLC) was 1370 nM and the TGI (HOP-92 NSCLC) was 2950 nM. For the same molecule, the GI50 (M14 melanoma) was 1890 nM, the TGI (M14 melanoma) was 3320 nM and the GI50 (MCF7 breast) was 1550 nM. It also gave a TGI (MCF7 breast) of 2960 nM, a GI50 (NCI-H322M lung) of 902 nM and a TGI (NCI-H322M lung) of 3350 nM. The GI50 (NCI/ADR-RES ovarian) was 1940 nM, the TGI (NCI/ADR-RES ovarian) was 4000 nM and the GI50 (OVCAR-3 ovarian) was 923 nM. The TGI (OVCAR-3 ovarian) was 2200 nM, the GI50 (OVCAR-4 ovarian) was 1690 nM and the TGI (OVCAR-4 ovarian) was 3130 nM. It also gave a GI50 (RPMI-8226 leukemia) of 1460 nM, a TGI (RPMI-8226 leukemia) of 2780 nM and a GI50 (SF-268 CNS) of 1840 nM. The TGI (SF-268 CNS) was 4010 nM, the GI50 (SNB-75 CNS) was 1350 nM and the TGI (SNB-75 CNS) was 2740 nM. It also gave a GI50 (UO-31 renal) of 1390 nM and a TGI (UO-31 renal) of 2700 nM.
